Values after ≈ are worked out from the molar mass of the structure shown.
Assays:
[1] = tested on: Staphylococcus aureus; assay: Antibacterial activity against methicillin resistant Staphylococcus aureus M16 incubated for 16 to 18 hrs by broth dilution method; type: functional; settings: time 16-18 hrs
[2] = tested on: Escherichia coli; assay: Antibacterial activity against Escherichia coli ATCC 25922 incubated for 16 to 18 hrs by broth dilution method; type: functional; settings: time 16-18 hrs
[3] = tested on: Staphylococcus aureus; assay: Antibacterial activity against methicillin resistant Staphylococcus aureus M14 incubated for 16 to 18 hrs by broth dilution method; type: functional; settings: time 16-18 hrs
[4] = tested on: Staphylococcus aureus; assay: Antibacterial activity against methicillin resistant Staphylococcus aureus M21 incubated for 16 to 18 hrs by broth dilution method; type: functional; settings: time 16-18 hrs
[5] = tested on: Staphylococcus aureus; assay: Antibacterial activity against methicillin resistant Staphylococcus aureus N315 incubated for 16 to 18 hrs by broth dilution method; type: functional; settings: time 16-18 hrs
[6] = Selectivity index, ratio of HC50 for sheep RBC to MIC for Staphylococcus aureus ATCC 29213; type: toxicity; settings: sheep red blood cells, read-out: Selectivity Index
[7] = Hemolytic activity in sheep RBC incubated for 1 hr; type: toxicity, cell-based, Ovis aries, Erythrocyte; settings: sheep red blood cells (erythrocytes)
[8] = tested on: Staphylococcus aureus; assay: Antibacterial activity against Staphylococcus aureus ATCC 29213 incubated for 16 to 18 hrs by broth dilution method; type: functional; settings: time 16-18 hrs
[9] = tested on: Staphylococcus aureus; assay: Antibacterial activity against methicillin resistant Staphylococcus aureus M13 incubated for 16 to 18 hrs by broth dilution method; type: functional; settings: time 16-18 hrs
[10] = tested on: Staphylococcus aureus; assay: Antibacterial activity against methicillin resistant Staphylococcus aureus M22 incubated for 16 to 18 hrs by broth dilution method; type: functional; settings: time 16-18 hrs
[11] = tested on: Staphylococcus aureus; assay: Antibacterial activity against methicillin resistant Staphylococcus aureus M12 incubated for 16 to 18 hrs by broth dilution method; type: functional; settings: time 16-18 hrs
[12] = tested on: Staphylococcus aureus; assay: Antibacterial activity against methicillin resistant Staphylococcus aureus M23 incubated for 16 to 18 hrs by broth dilution method; type: functional; settings: time 16-18 hrs
[13] = tested on: Staphylococcus aureus; assay: Antibacterial activity against methicillin resistant Staphylococcus aureus M11 incubated for 16 to 18 hrs by broth dilution method; type: functional; settings: time 16-18 hrs
[14] = tested on: Staphylococcus aureus; assay: Antibacterial activity against methicillin resistant Staphylococcus aureus M20 incubated for 16 to 18 hrs by broth dilution method; type: functional; settings: time 16-18 hrs
[15] = tested on: Staphylococcus aureus; assay: Antibacterial activity against methicillin resistant Staphylococcus aureus M17 incubated for 16 to 18 hrs by broth dilution method; type: functional; settings: time 16-18 hrs

Structure (SMILES): C=CCc1cc(-c2ccc(OCCC[N+](C)(C)CC(=O)NCCCC)c(CC=C)c2)c2oc(-c3cc(Cl)cc(Cl)c3)nc2c1.[Br-]
- MIC [1]: 64 µg/mL
- MIC [2]: > 128 µg/mL
- MIC [3]: 64 µg/mL
- MIC [4]: 32 µg/mL
- MIC [5]: 128 µg/mL
- selectivity ratio [6]: 0.6
- HC50 at 1 h [7]: 81.3 µg/mL
- MIC [8]: 128 µg/mL
- MIC [9]: 32 µg/mL
- MIC [10]: 128 µg/mL
- MIC [11]: 128 µg/mL
- MIC [12]: 128 µg/mL
- MIC [13]: > 128 µg/mL
- MIC [14]: 128 µg/mL
- MIC [15]: 32 µg/mL

Structure (SMILES): C=CCc1cc(-c2ccc(OCCC[N+](C)(C)CC(=O)NCCCC)c(CC=C)c2)c2oc(-c3ccc(F)cc3Cl)nc2c1.[Br-]
- MIC [1]: 4 µg/mL
- MIC [2]: > 128 µg/mL
- MIC [3]: 4 µg/mL
- MIC [4]: 4 µg/mL
- MIC [5]: 8 µg/mL
- selectivity ratio [6]: 27.3
- HC50 at 1 h [7]: 219 µg/mL
- MIC [8]: 8 µg/mL
- MIC [9]: 4 µg/mL
- MIC [10]: 4 µg/mL
- MIC [11]: 4 µg/mL
- MIC [12]: 4 µg/mL
- MIC [13]: 4 µg/mL
- MIC [14]: 4 µg/mL
- MIC [15]: 4 µg/mL

Structure (SMILES): C=CCc1cc(-c2ccc(OCCC[N+](C)(C)CC(=O)NCCCC)c(CC=C)c2)c2oc(-c3ccccc3Br)nc2c1.[Br-]
- MIC [1]: 2 µg/mL
- MIC [2]: 128 µg/mL
- MIC [3]: 4 µg/mL
- MIC [4]: 4 µg/mL
- MIC [5]: 8 µg/mL
- selectivity ratio [6]: > 80
- HC50 at 1 h [7]: > 320 µg/mL
- MIC [8]: 4 µg/mL
- MIC [9]: 2 µg/mL
- MIC [10]: 4 µg/mL
- MIC [11]: 4 µg/mL
- MIC [12]: 4 µg/mL
- MIC [13]: 4 µg/mL
- MIC [14]: 4 µg/mL
- MIC [15]: 4 µg/mL

Structure (SMILES): C=CCc1cc(-c2ccc(OCCC[N+](C)(C)CC(=O)NCCCC)c(CC=C)c2)c2oc(-c3ccc(Cl)cc3Br)nc2c1.[Br-]
- MIC [1]: 128 µg/mL
- MIC [2]: > 128 µg/mL
- MIC [3]: 128 µg/mL
- MIC [4]: > 128 µg/mL
- MIC [5]: > 128 µg/mL
- HC50 at 1 h [7]: > 320 µg/mL
- MIC [8]: > 128 µg/mL
- MIC [9]: > 128 µg/mL
- MIC [10]: 128 µg/mL
- MIC [11]: > 128 µg/mL
- MIC [12]: > 128 µg/mL
- MIC [13]: 128 µg/mL
- MIC [14]: > 128 µg/mL
- MIC [15]: > 128 µg/mL

Structure (SMILES): C=CCc1cc(-c2ccc(OCCC[N+](C)(C)CC(=O)NCCCC)c(CC=C)c2)c2oc(-c3cccc(Cl)c3Cl)nc2c1.[Br-]
- MIC [1]: 8 µg/mL
- MIC [2]: 128 µg/mL
- MIC [3]: 4 µg/mL
- MIC [4]: 8 µg/mL
- MIC [5]: 8 µg/mL
- selectivity ratio [6]: 1.2
- HC50 at 1 h [7]: 39.5 µg/mL
- MIC [8]: 32 µg/mL
- MIC [9]: 16 µg/mL
- MIC [10]: 8 µg/mL
- MIC [11]: 8 µg/mL
- MIC [12]: 8 µg/mL
- MIC [13]: 16 µg/mL
- MIC [14]: 4 µg/mL
- MIC [15]: 4 µg/mL

Structure (SMILES): C=CCc1ccc(O)c(-c2ccc(O)c(CC=C)c2)c1 [HONOKIOL]
- MIC [1]: 16 µg/mL (≈ 60.1 µM)
- MIC [2]: > 128 µg/mL
- MIC [3]: 16 µg/mL (≈ 60.1 µM)
- MIC [4]: 16 µg/mL (≈ 60.1 µM)
- MIC [5]: 8 µg/mL (≈ 30 µM)
- selectivity ratio [6]: > 1.25
- HC50 at 1 h [7]: > 80 µg/mL
- MIC [8]: 64 µg/mL (≈ 240 µM)
- MIC [9]: 16 µg/mL (≈ 60.1 µM)
- MIC [10]: 16 µg/mL (≈ 60.1 µM)
- MIC [11]: 8 µg/mL (≈ 30 µM)
- MIC [12]: 16 µg/mL (≈ 60.1 µM)
- MIC [13]: 16 µg/mL (≈ 60.1 µM)
- MIC [14]: 8 µg/mL (≈ 30 µM)
- MIC [15]: 16 µg/mL (≈ 60.1 µM)

Structure (SMILES): C=CCc1cc(-c2ccc(OCCC[N+](C)(C)CC(=O)NCCCC)c(CC=C)c2)c2oc(-c3cc(F)c(F)c(F)c3)nc2c1.[Br-]
- MIC [1]: 32 µg/mL
- MIC [2]: > 128 µg/mL
- MIC [3]: 32 µg/mL
- MIC [4]: 32 µg/mL
- MIC [5]: 64 µg/mL
- selectivity ratio [6]: < 0.5
- HC50 at 1 h [7]: 64.4 µg/mL
- MIC [8]: > 128 µg/mL
- MIC [9]: 32 µg/mL
- MIC [10]: 64 µg/mL
- MIC [11]: 128 µg/mL
- MIC [12]: 32 µg/mL
- MIC [13]: 32 µg/mL
- MIC [14]: 64 µg/mL
- MIC [15]: 64 µg/mL

Structure (SMILES): C[C@@H](O)[C@H]1C(=O)N2C(C(=O)O)=C(S[C@@H]3CN[C@H](C(=O)N(C)C)C3)[C@H](C)[C@H]12 [MEROPENEM]
- MIC [2]: 0.063 µg/mL (≈ 0.164 µM)

Structure (SMILES): C=CCc1cc(-c2ccc(OCCC[N+](C)(C)CC(=O)NCCCC)c(CC=C)c2)c2oc(-c3ccc(Cl)cc3F)nc2c1.[Br-]
- MIC [1]: 128 µg/mL
- MIC [2]: 128 µg/mL
- MIC [3]: 64 µg/mL
- MIC [4]: 128 µg/mL
- MIC [5]: > 128 µg/mL
- HC50 at 1 h [7]: > 640 µg/mL
- MIC [8]: > 128 µg/mL
- MIC [9]: > 128 µg/mL
- MIC [10]: 128 µg/mL
- MIC [11]: 128 µg/mL
- MIC [12]: 128 µg/mL
- MIC [13]: > 128 µg/mL
- MIC [14]: 128 µg/mL
- MIC [15]: 128 µg/mL

Source: ChEMBL document CHEMBL5608246, “Membrane-Targeting Amphiphilic Honokiol Derivatives Containing an Oxazole Moiety as Potential Antibacterials against Methicillin-Resistant Staphylococcus aureus” (J Med Chem, 2024)
